Laboratory results as given in ChEMBL document CHEMBL4196157, “Inhibition of Herpes Simplex Virus-1 Entry into Human Cells by Nonsaccharide Glycosaminoglycan Mimetics” (ACS Med Chem Lett, 2018).
Calls of active or inactive are those of the source. The rule behind the calls is not given here.

Legend:
[1] = (§1) Binding affinity to recombinant HSV1 glycoprotein D (21 to 339 residues) assessed as change in intrinsic tryptophan fluorescence by spectrofluorimetric method; parameters: species or system Human alphaherpesvirus 1
Human alphaherpesvirus 1 [2] = test: as §1
[3] = Binding affinity to HSV1 glycoprotein D; parameters: species or system Human alphaherpesvirus 1
Human alphaherpesvirus 1 [4] = test: Antiviral activity against Herpes simplex virus 1 KOS infected in African green monkey Vero cells assessed as inhibition of plaque formation at 5 ug treated 1 hr prior to viral infection followed by compound washout and subsequent compound addition measured after 72 hrs by Giemsa staining based assay; assay type: functional, organism-based

SMILES | Kd [1] [nM] | %max (Human alphaherpesvirus 1 [2]) [%] | Kd [3] [nM] | inhibition (Human alphaherpesvirus 1 [4])
CCOC(=O)c1c(C)oc2cc(OCc3cccc(OS(=O)(=O)O)c3)c(OCc3oc4cc(OC)c(OS(=O)(=O)O)cc4c3C(=O)OCC)cc12 | 2220 | -112 |  | 
O=C(O[C@@H]1[C@@H](OC(=O)c2cc(OS(=O)(=O)O)cc(OS(=O)(=O)O)c2)[C@H](OC(=O)c2cc(OS(=O)(=O)O)cc(OS(=O)(=O)O)c2)[C@@H](OC(=O)c2ccc(OS(=O)(=O)O)cc2OS(=O)(=O)O)[C@H](OC(=O)c2cc(OS(=O)(=O)O)cc(OS(=O)(=O)O)c2)[C@H]1OC(=O)c1cc(OS(=O)(=O)O)cc(OS(=O)(=O)O)c1)c1cc(OS(=O)(=O)O)cc(OS(=O)(=O)O)c1 | 8 | 53 |  | 
CO[C@H]1O[C@H](COS(=O)(=O)O)[C@@H](O[C@@H]2O[C@@H](C(=O)O)[C@@H](O[C@H]3O[C@H](COS(=O)(=O)O)[C@@H](O[C@@H]4O[C@H](C(=O)O)[C@@H](O[C@H]5O[C@H](COS(=O)(=O)O)[C@@H](O)[C@H](O)[C@H]5NS(=O)(=O)O)[C@H](O)[C@H]4O)[C@H](OS(=O)(=O)O)[C@H]3NS(=O)(=O)O)[C@H](O)[C@H]2OS(=O)(=O)O)[C@H](O)[C@H]1NS(=O)(=O)O [FONDAPARINUX SODIUM] | 500 | -85 |  | 
O=C(O)C1=C[C@H](O)[C@@H](OS(=O)(=O)O)[C@H](O[C@H]2[C@H](O)[C@@H](NS(=O)(=O)O)[C@@H](O[C@H]3[C@H](O)[C@@H](OS(=O)(=O)O)[C@H](O[C@H]4[C@H](O)[C@@H](NS(=O)(=O)O)[C@@H](O[C@H]5[C@H](O)[C@@H](OS(=O)(=O)O)[C@H](O[C@H]6[C@H](OS(=O)(=O)O)[C@@H](NS(=O)(=O)O)[C@@H](O[C@H]7[C@H](O)[C@@H](OS(=O)(=O)O)[C@H](O[C@H]8[C@H](O)[C@@H](NS(=O)(=O)O)[C@@H](O)O[C@@H]8COS(=O)(=O)O)O[C@H]7C(=O)O)O[C@@H]6COS(=O)(=O)O)O[C@H]5C(=O)O)O[C@@H]4COS(=O)(=O)O)O[C@H]3C(=O)O)O[C@@H]2COS(=O)(=O)O)O1 |  |  | 18000 | 
CCOC(=O)c1c(C)oc2cc(OCc3ccccc3)c(OCCCOc3cc(OS(=O)(=O)O)cc4oc(-c5ccc(OS(=O)(=O)O)cc5)cc(=O)c34)cc12 | 780 | -157 |  | 
Cc1cc(Oc2cc3c(=O)c(OS(=O)(=O)O)c(-c4ccc(OS(=O)(=O)O)c(OS(=O)(=O)O)c4)oc3cc2OS(=O)(=O)O)c(C)cc1COc1cc(OS(=O)(=O)O)cc2oc(-c3ccc(OS(=O)(=O)O)c(OS(=O)(=O)O)c3)c(OS(=O)(=O)O)c(=O)c12 | 22 | -82 |  | 
O=C(OC1[C@@H](OC(=O)c2cc(OS(=O)(=O)O)cc(OS(=O)(=O)O)c2)[C@@H](OC(=O)c2ccc(OS(=O)(=O)O)cc2OS(=O)(=O)O)C(OC(=O)c2cc(OS(=O)(=O)O)cc(OS(=O)(=O)O)c2)[C@H](OC(=O)c2cc(OS(=O)(=O)O)cc(OS(=O)(=O)O)c2)[C@H]1OC(=O)c1cc(OS(=O)(=O)O)cc(OS(=O)(=O)O)c1)c1cc(OS(=O)(=O)O)cc(OS(=O)(=O)O)c1 (single isomer, unassigned) | 112 | 328 |  | 
Nc1nc2c(ncn2COCCO)c(=O)[nH]1 |  |  |  | Active
CC1OC[C@H]2O[C@H](OC(=O)c3cc(OS(=O)(=O)O)cc(OS(=O)(=O)O)c3)[C@H](OC(=O)c3cc(OS(=O)(=O)O)cc(OS(=O)(=O)O)c3)[C@@H](OC(=O)c3cc(OS(=O)(=O)O)cc(OS(=O)(=O)O)c3)[C@@H]2O1 (stereo partly drawn) | 26 | 87 |  | 
O=S(=O)(O)OC[C@H]1O[C@@](COS(=O)(=O)O)(O[C@@H]2O[C@H](COS(=O)(=O)O)[C@@H](OS(=O)(=O)O)[C@H](OS(=O)(=O)O)[C@H]2OS(=O)(=O)O)[C@@H](OS(=O)(=O)O)[C@@H]1OS(=O)(=O)O | 150 | -52 |  | 
